# Target: T1, human cloned 5-HT6 receptors (Homo sapiens, UniProt P50406)
# T1 construct: expressed in transfected cells; host or cells: Hela cells
# Assay: 5-HT6 binding affinity ([3H]-LSD displacement, membranes of Hela cells expressing human cloned 5-HT6 receptors)
# Conditions: [3H]-LSD 3.0 nM, 120 min, room temperature, Hela cell membranes
# Method: The affinity of test compounds for the serotonin 5-HT6 receptor is evaluated in the following manner. Cultured Hela cells expressing human cloned 5-HT6 receptors are harvested and centrifuged at low speed (1,000×g) for 10.0 min to remove the culture media. The harvested cells are suspended in half volume of fresh physiological phosphate buffered saline solution and recentrifuged at the same speed. This operation is repeated. The collected cells are then homogenized in ten volumes of 50 mM Tris.HCl (pH 7.4) and 0.5 mM EDTA. The homogenate is centrifuged at 40,000×g for 30.0 min and the precipitate is collected. The obtained pellet is resuspended in 10 volumes of Tris.HCl buffer and recentrifuged at the same speed. The final pellet is suspended in a small volume of Tris.HCl buffer and the tissue protein content is determined in aliquots of 10-25 μl volumes. Bovine Serum Albumin is used as the standard in the protein determination according to the method described in Lowry et al., J. Biol. Chem., 193:265 (1951). The volume of the suspended cell membranes is adjusted to give a tissue protein concentration of 1.0 mg/ml of suspension. The prepared membrane suspension (10 times concentrated) is aliquoted in 1.0 ml volumes and stored at −70° C. until used in subsequent binding experiments.
# Binding experiments are performed in a 96 well microtiter plate format, in a total volume of 200 μl. […] The test compounds are added in 20.0 μl volume.
# The reaction is allowed to proceed in the dark for 120 min at room temperature, at which time, the bound ligand-receptor complex is filtered off on a 96 well unifilter with a Packard Filtermate® 196 Harvester. The bound complex caught on the filter disk is allowed to air dry and the radioactivity is measured in a Packard TopCount® equipped with six photomultiplier detectors, after the addition of 40.0 μl Microscint®-20 scintillant to each shallow well. The unifilter plate is heat-sealed and counted in a PackardTopCount® with a tritium efficiency of 31.0%.
# Binding in the presence of varying concentrations of test compound is expressed as a percentage of specific binding in the absence of test compound. The results are plotted as log % bound versus log concentration of test compound. […] A linear regression line of data points is plotted, from which the IC50 value is determined and the Ki value is determined based upon the following equation: Ki=IC50/(1+L/KD) where L is the concentration of the radioactive ligand used and KD is the dissociation constant of the ligand for the receptor, both expressed in nM.
# T1 sequence (P50406 whole entry): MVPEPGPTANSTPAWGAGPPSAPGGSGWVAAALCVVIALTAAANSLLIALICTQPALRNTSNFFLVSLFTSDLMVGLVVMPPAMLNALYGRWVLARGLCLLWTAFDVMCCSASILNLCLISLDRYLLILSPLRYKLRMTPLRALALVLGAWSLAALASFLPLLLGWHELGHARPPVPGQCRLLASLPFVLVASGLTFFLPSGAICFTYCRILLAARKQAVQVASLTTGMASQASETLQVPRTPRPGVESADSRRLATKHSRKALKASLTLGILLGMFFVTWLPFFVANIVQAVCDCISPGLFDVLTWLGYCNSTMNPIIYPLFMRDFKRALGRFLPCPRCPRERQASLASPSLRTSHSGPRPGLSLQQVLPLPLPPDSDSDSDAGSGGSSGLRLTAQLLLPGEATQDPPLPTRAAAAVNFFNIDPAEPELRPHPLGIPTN
row,Ki [nM],Compound
1,18,"1-[(2,6-dichloroimidazo[2,1-b][1,3]thiazol-5-yl)sulfonyl]-3-(1,2,3,6-tetrahydropyridin-4-yl)-1,3-dihydro-2H-benzimidazol-2-one [Example 50]"
2,43,"CN(C)CCn1c(=O)n(S(=O)(=O)c2ccc(Cl)s2)c2ccccc21 [Example 4, 1-[(5-Chlorothien-2-yl)sulfonyl]-3-[2-(dimethylamino)ethyl]-1,3-dihydro-2H-benzimidazol-2-one]"
3,20,"CN(C)CCn1c(=O)n(S(=O)(=O)c2c(Cl)nc3sccn23)c2ccccc21 [Example 5, 1-[(6-chloroimidazo[2,1-b][1,3]thiazol-5-yl)sulfonyl]-3-[2-(dimethylamino)ethyl]-1,3-dihydro-2H-benzimidazol-2-one]"
4,17,"CN(C)CCn1c(=O)n(S(=O)(=O)c2ccc3ccccc3c2)c2ccccc21 [Example 6, 1-[2-(dimethylamino)ethyl]-3-(2-naphthylsulfonyl)-1,3-dihydro-2H-benzimidazol-2-one]"
5,40,"CN(C)CCn1c(=O)n(S(=O)(=O)c2ccc(Br)s2)c2ccccc21 [Example 10, 1-[(5-bromothien-2-yl)sulfonyl]-3-[2-(dimethylamino)ethyl]-1,3-dihydro-2H-benzimidazol-2-one]"
6,26,"NCCn1c(=O)n(S(=O)(=O)c2ccc(Cl)s2)c2ccccc21 [Example 17, 1-(2-Aminoethyl)-3-[(5-chlorothien-2-yl)sulfonyl]-1,3-dihydro-2H-benzimidazol-2-one]"
7,6,"NCCn1c(=O)n(S(=O)(=O)c2c(Cl)nc3sccn23)c2ccccc21 [Example 18, 1-(2-aminoethyl)-3-[(6-chloroimidazo[2,1-b][1,3]thiazol-5-yl)sulfonyl]-1,3-dihydro-2H-benzimidazol-2-one]"
8,23,"NCCn1c(=O)n(S(=O)(=O)c2ccc3ccccc3c2)c2ccccc21 [Example 19, 1-(2-aminoethyl)-3-(2-naphthylsulfonyl)-1,3-dihydro-2H-benzimidazol-2-one]"
9,26,"NCCn1c(=O)n(S(=O)(=O)c2ccc(Br)s2)c2ccccc21 [Example 20, 1-(2-aminoethyl)-3-[(5-bromothien-2-yl)sulfonyl]-1,3-dihydro-2H-benzimidazol-2-one]"
10,20,"O=c1n(C2CCNCC2)c2ccccc2n1S(=O)(=O)c1ccc2ccccc2c1 [Example 22, 3-(Naphth-2-ylsulfonyl)-1-piperidin-4-yl-1,3-dihydrobenzimidazol-2-one]"
11,20,"O=c1n(C2CCNCC2)c2ccccc2n1S(=O)(=O)c1ccc(Cl)s1 [Example 23, 1-[(5-chlorothien-2-yl)sulfonyl]-3-piperidin-4-yl-1,3-dihydro-2H-benzimidazol-2-one]"
12,5,"O=c1n(C2CCNCC2)c2ccccc2n1S(=O)(=O)c1ccc(Br)s1 [Example 24, 1-[(5-bromothien-2-yl)sulfonyl]-3-piperidin-4-yl-1,3-dihydro-2H-benzimidazol-2-one]"
13,32,"O=c1n(C2CCNCC2)c2ccccc2n1S(=O)(=O)c1cc(Cl)c(Cl)s1 [Example 25, 1-[(4,5-dichlorothien-2-yl)sulfonyl]-3-piperidin-4-yl-1,3-dihydro-2H-benzimidazol-2-one]"
14,34,"O=c1n(C2CCNCC2)c2ccccc2n1S(=O)(=O)c1cc(Cl)sc1Cl [Example 26, 1-[(2,5-dichlorothien-3-yl)sulfonyl]-3-piperidin-4-yl-1,3-dihydro-2H-benzimidazol-2-one]"
15,27,"O=c1n(C2CCNCC2)c2ccccc2n1S(=O)(=O)c1cc(Br)c(Br)s1 [Example 27, 1-[(4,5-dibromothien-2-yl)sulfonyl]-3-piperidin-4-yl-1,3-dihydro-2H-benzimidazol-2-one]"
16,20,"O=c1n(C2CCNCC2)c2ccccc2n1S(=O)(=O)c1cc(Br)c(Cl)s1 [Example 29, 1-[(4-bromo-5-chlorothien-2-yl)sulfonyl]-3-piperidin-4-yl-1,3-dihydro-2H-benzimidazol-2-one]"
